Patent publication US20160102336A1, “FLUORESCENT PROBE FOR DETECTING ACTIVITY OF CALPAIN” (THE UNIVERSITY OF TOKYO, priority 2013, published 2016)
*1 amine or outer side, *2 acyl side, *3 side chain or, on linkers, in order; H or OH if unused. Where a SMILES comes first, the peptide text is derived from it. The star is where a group is joined. X1 = Cc1ccccc1C1=C2C=CC(=N)C=C2[Si](C)(C)c2cc(N*)ccc21; Suc = O=C(CCC(=O)[*:2])[*:1]

What was measured:
[1] = Measurement of the optical characteristics; assay type: physicochemical; settings: for Absmax / Emmax / Φn / ε: 0.1 sodium phosphate buffer with pH 3 containing 1% DMSO
Description: The optical characteristics of Suc-LLVY-SiR600 and Boc-LM-SiR600 were measured in a 0.1 sodium phosphate buffer with pH 3 containing 1% DMSO.

[2] = target: T1, calpain-1 (Homo sapiens, UniProt P07384); assay: Evaluation as a calpain fluorescent probe (fluorescence spectrum after addition of calpain-1); assay type: biochemical
T1 sequence (P07384 1-714): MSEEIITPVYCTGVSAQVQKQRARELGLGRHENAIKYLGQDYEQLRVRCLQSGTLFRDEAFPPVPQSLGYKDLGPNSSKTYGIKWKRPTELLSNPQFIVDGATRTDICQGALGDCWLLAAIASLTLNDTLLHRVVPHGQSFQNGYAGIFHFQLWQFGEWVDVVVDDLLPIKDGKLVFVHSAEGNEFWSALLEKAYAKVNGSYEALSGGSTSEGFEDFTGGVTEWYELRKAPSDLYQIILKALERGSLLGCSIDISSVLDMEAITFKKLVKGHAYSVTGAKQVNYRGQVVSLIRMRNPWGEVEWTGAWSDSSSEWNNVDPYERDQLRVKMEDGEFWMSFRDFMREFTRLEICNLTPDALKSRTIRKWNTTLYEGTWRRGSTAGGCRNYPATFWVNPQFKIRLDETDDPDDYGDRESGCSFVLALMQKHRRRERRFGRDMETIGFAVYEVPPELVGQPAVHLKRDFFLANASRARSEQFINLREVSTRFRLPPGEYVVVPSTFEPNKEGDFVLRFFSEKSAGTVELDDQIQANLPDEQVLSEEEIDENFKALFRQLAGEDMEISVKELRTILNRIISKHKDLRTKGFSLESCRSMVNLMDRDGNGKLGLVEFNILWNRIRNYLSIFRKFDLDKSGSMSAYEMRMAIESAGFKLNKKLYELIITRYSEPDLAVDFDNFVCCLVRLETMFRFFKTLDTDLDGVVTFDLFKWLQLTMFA
T1 sequence (P04632 1-268 partner): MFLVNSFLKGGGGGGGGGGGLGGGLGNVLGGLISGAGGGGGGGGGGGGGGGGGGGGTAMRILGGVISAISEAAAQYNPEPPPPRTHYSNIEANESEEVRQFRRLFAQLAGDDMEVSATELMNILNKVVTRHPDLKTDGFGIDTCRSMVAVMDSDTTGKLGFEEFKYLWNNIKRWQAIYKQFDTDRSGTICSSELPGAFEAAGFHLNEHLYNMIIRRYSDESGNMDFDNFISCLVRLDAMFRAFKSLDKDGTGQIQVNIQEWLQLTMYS
Description: FIGS. 1(c) to 1(e) show the fluorescence spectrum 10 to 60 minutes later from addition of 5 μg calpain-1 to the Suc-LLVY-SiR600 solution (2 μM).
In FIGS. 1(b) to 1(e), the reaction was carried out in a 0.75-mL of 20-mM HEPES buffer solution (pH 7.4) containing 100-μM DTT, 10% glycerol, 0.1% CHAPS, 100-mM NaCl, 1-mM EDTA, and 1.5-mM CaCl2, and containing 1% DMSO as a cosolvent.
In FIG. 1(d), the reaction was carried out in the absence of 1.5-mM CaCl2, and in FIG. 1(e), the reaction was carried out in the presence of 1-μM calpeptin.
The reaction temperature was 25° C. in FIGS. 1(b), 1(d), and 1(e), and 37° C. in FIG. 1(c).
In FIGS. 2(b) and 2(c), the reaction was carried out in a 0.75-mL of 20-mM HEPES buffer solution (pH 7.4) containing 100-μM DTT, 10% glycerol, 0.1% CHAPS, 100-mM NaCl, 1-mM EDTA, and 1.5-mM CaCl2, and containing 1% DMSO as a cosolvent. In FIG. 2(c), the reaction was carried out in the presence of 1-μM calpeptin, and in FIG. 2(b), the reaction was carried out in the absence of calpeptin.
The reaction temperature was 25° C. in FIGS. 2(b) and 2(c), and the excitation wavelength was 593 nm.

[3] = tested on: Calpain activity in HeLa cells; assay: Imaging of calpain activity in HeLa cells (confocal microscope); assay type: cell-based
Description: (§1) Hela cells were incubated for 10 minutes at 37° C. using (a) Hank's balanced salt solution (HBSS) containing DMSO as a control, and (b) HBSS containing 20-11M calpeptin, and further incubation for 20 minutes was carried out in 2-μM Suc-LLVY-SiR600. A fluorescence image and a differential interference image were then taken using a confocal microscope. The scale bar in the drawings is 20 μm.
(§2) Statistical analysis was carried out using Student's t-test (n=18).

[4] = tested on: Calpain activity in A549 cells; assay: Imaging of calpain activity in A549 cells (confocal microscope); assay type: cell-based; settings: 2-μM Suc-LLVY-SiR600, 20 minutes, HBSS, 37° C.
Description: as §1, with “A549” for “Hela”, “20-μM” for “20-11M”
as §2

Compound	Absmax [1] [nm]	Emmax [1] [nm]	Φn [1]	ε [1]	absorption of light near maximum absorption (593 nm) of 2MeSiR600 ([1]; near 593 nm)	increase in fluorescence in a solution that does not contain Ca^2+ ([2]; probe 2 μM, 5 μg calpain-1, 10 to 60 minutes, absence of 1.5-mM CaCl2, 25° C.)	fluorescence after the reaction with calpain-1 ([2]; probe 2 μM, 5 μg calpain-1, 180 minutes, HEPES buffer pH 7.4 with 1.5-mM CaCl2, 25° C., excitation 593 nm)	fluorescence before the reaction with calpain-1 ([2]; probe 2 μM, excitation 593 nm, before addition of calpain-1, 25° C.)	visualization of calpain activity in HeLa cells ([3]; 2-μM Suc-LLVY-SiR600, 20 minutes, HBSS, 37° C.)	visualization of calpain activity in A549 cells [4]	increase in fluorescence of Boc-LM-SiR600 with calpain-1 when calpeptin was added ([2]; 1-μM calpeptin, Boc-LM-SiR600 2 μM, 5 μg calpain-1, 25° C.)	increase in fluorescence of Suc-LLVY-SiR600 with calpain-1 when calpeptin is added ([2]; 1-μM calpeptin, Suc-LLVY-SiR600 2 μM, 5 μg calpain-1, 25° C.)	fluorescence intensity in HeLa cells on addition of calpeptin ([3]; 20-11M calpeptin 10 minutes at 37° C., then 2-μM Suc-LLVY-SiR600 20 minutes)
2Me SiR600 [reference compound]	593	613	0.38	91,000 M^−1cm^−1									
Cc1ccccc1C1=C2C=CC(=N)C=C2[Si](C)(C)c2cc(NC(=O)[C@H](Cc3ccc(O)cc3)NC(=O)[C@@H](NC(=O)[C@H](CC(C)C)NC(=O)[C@H](CC(C)C)NC(=O)CCC(=O)O)C(C)C)ccc21 [Suc-LLVY-SiR600] (Suc-LLVY-X1)	497	590	0.03	25,000 M^−1cm^−1	did not absorb light	an increase in fluorescence does not occur	high-intensity fluorescence was observed	fluorescence was mostly unobserved	calpain activity in HeLa cells can be monitored	calpain activity in cells was successfully visualized			
CCCC[C@@H](C=O)NC(=O)[C@H](CC(C)C)NC(=O)OCc1ccccc1 [calpeptin, reference compound]											an increase in fluorescence did not occur	an increase in fluorescence does not occur	fluorescence intensity in the cells was reduced
